Assay results as given in US7261901B2, “Vaccine and compositions for the prevention and treatment of neisserial infections” (University of Iowa Research Foundation, priority 2001, dated 2007).

Tests used:
Ectocervical Cells = assay: Association and invasion (gentimicin-resistance) assays, primary ectocervical (pex) cells; assay type: cell-based, human
Procedure: (§1) 8. N. gonorrhoeae Attachment to and Invasion of Primary, Human, Cervical Cells. Primary cervical cell monolayers were infected with wild-type or PLD mutant gonococci as outlined above. Variable concentrations of Streptomyces spp. PLD (SsPLD) (Sigma), PMA, or 4-α phorbol were included in association (adherence and invasion) or invasion assays, as noted. Cervical cells were preincubated (30 minutes, 37° C.) with 200 nM PMA or 4-α phorbol before the addition of gonococci. 10 units ml^−1 SsPLD was added simultaneously with gonococci. Alternatively, where noted, cervical cell monolayers were pre-incubated (30 minutes, 37° C.) with pervanadate, which was made by mixing 100 μM ortho-sodium vanadate in 3 mM hydrogen peroxide. In separate assays, infection supernatants were collected from wild-type or PLD mutant-infected cervical cell monolayers, gonococci were removed by filtration through a 0.22 μm syringe filter (i.e., wild-type or mutant primed supernatants) and were added to association and/or invasion assays, as noted. The ability of gonococci to adhere to and/or invade pex and pen cells was quantitatively determined using standard gentimicin-resistance assays, performed as described previously (Edwards et al., 2000), and in which chemical or protein additives were included or excluded from the invasion assay as described above. The total association (i.e., adherence and invasion) of gonococci with pex and pen cells was quantitated by the omission of gentimicin from the above described invasion assay. Percent invasion of N. gonorrhoeae 1291 or 1291ΔPLDin the presence or absence of experimental additives was determined as a function of the original inoculum and the number of colonies formed with subsequent plating of the cellular lysate. A Kruskal-Wallis non-parametric analysis of variance was used to determine the statistical significance of the association and invasion assays described above.
N. gonorrhoeae Attachment to and Invasion of Primary, Human, Cervical Cells. Primary cervical cell monolayers were infected with wild-type or PLD mutant gonococci as outlined above. Variable concentrations of PtC (Sigma), ethanol, 2-butanol, or Streptomyces spp. PLD (SsPLD) (Sigma) were included in association (adherence and invasion) or invasion assays, as noted. PtC, ethanol, 2-butanol, or 10 units ml^−1 SsPLD were added simultaneously with gonococci. In separate assays, infection supernatants were collected from wild-type or PLD mutant-infected cervical cell monolayers, gonococci were removed by filtration through a 0.22 μm syringe filter (to yield primed wild-type or mutant supernatants), which were then added to association and/or invasion assays, as noted. The ability of gonococci to adhere to and/or invade pex and pen cells was quantitatively determined using standard gentimicin-resistance assays, performed as described previously (Edwards et al., 2000) and in which chemical or protein additives were included or excluded from the invasion assay as described above. The total association (i.e., adherence and invasion) of gonococci with pex and pen cells was quantitated by the omission of gentimicin from the above described invasion assay. Percent invasion of N. gonorrhoeae 1291 or 1291ΔPLD in the presence or absence of experimental additives was determined as a function of the original inoculum and the number of colonies formed with subsequent plating of the cellular lysate. Inhibition of gonococcal attachment and/or invasion by exogenous PtC, ethanol, or 2-butanol was determined as a normalized function of the ability of gonococci to attach to and/or invade primary cervical cells in the absence of the competimer inhibitor. A Kruskal-Wallis non-parametric analysis of variance was used to determine the statistical significance of the association and invasion assays described above.

[1] = tested on: primary ectocervical cells; assay: Gentamycin-resistance invasion assay of N. gonorrhoeae 1291 with inhibitors of cytoskeletal motility and protein synthesis, ectocervical cells; assay type: cell-based, human; conditions: for effect on bacterial entry / gonococcal invasion: both cell types (endo- and ectocervical)
Procedure: Invasion Assays in the Presence of Inhibitors of Cytoskeletal Motility and Protein Synthesis: Cervical cells were passed to 12 mm collagen-coated coverslips as outlined above. Prior to infection with N. gonorrhoeae 1291 wild-type cells, primary cell cultures were left untreated, or they were pre-incubated with 300 nM wortmannin (Sigma), 1 μM cytochalasin D (Sigma), or 400 mM ethylene glycol bis-(2-aminoethyl ether)-N,N, N′, N′ tetraacetic acid ((EGTA) Amresco, Solon, Ohio) for 2 h, 30 min, and 30 min, respectively, or they were pretreated with 100 µg/ml nocodazole (Calbiochem-Novabiochem Corp., La Jolla, Calif.) for 1 h at 4° C. followed by a 30 min incubation at 37° C. The requirement for de novo protein synthesis, either by the bacteria or by the primary cervical cells, was tested by pretreatment (30 min, 37° C.) of the bacterial cultures or cervical cell monolayers with 4 μg/ml chloramphenicol (Sigma) or 25 μM cycloheximide (Calbiochem-Novabiochem Corp.), respectively. All chemical reagents used were maintained in the infection medium throughout the course of the infection. […] Infection was allowed to progress at 37° C., 5% CO2, for 1.5 h after which the medium was removed, the cells were rinsed with PBS, and then incubated with KGM-2 containing 100 μg/ml gentamycin to kill extracellular bacteria. Post incubation the cervical cells were lysed with 0.5% saponin to release invasive bacteria. Percent invasion was determined as a function of the original inoculum and the number of colonies formed with subsequent plating of the cellular lysate. A Kruskal-Wallace ANOVA was used to determine the statistical significance of the calculated percent invasion for each of the cytoskeletal motility inhibitors used with respect to the untreated, infected cell cultures.

PLD = PLD activity (Amplex Red Phospholipase D Assay Kit) in gonococci, infected cervical cell lysates, fractions and supernatants; assay type: biochemical, N. gonorrhoeae
Procedure: (§2) 4. Determination of PLD Activity. PLD activity was accessed using the Amplex™ Red Phospholipase D Assay Kit (Molecular Probes, Eugene Oreg.). Wild-type and PLD mutant gonococci were suspended in PLD assay buffer to a final concentration of 10^7 bacteria ml^−1, and activity was determined according to the manufacturer's protocol. Assessment of PLD activity at acidic pH was determined in a two-step assay according to the manufacturer's protocol. For the first step, 10^8 gonococci were suspended in PBS with the pH adjusted to 3.0, 4.5, or 6.0. Gonococcal suspensions were diluted 10-fold in PLD assay buffer for the second step of the reaction. Cervical cell fractions were prepared as outlined below and PLD activity was assessed at neutral pH according to the manufacturer's protocol.
5. Fractionation of Primary Cervical Cells. Uninfected (control) and infected cervical cell monolayers were lysed in buffer A (50 mM tris, pH 7.5; 10 mM NaCl, 1 mM KCl; 2 mM MgCl2, 1 mM PMSF) by scraping cervical cells from tissue culture dishes placed on ice. The cell lysate was sonicated (two bursts of 20 seconds each). Cell debris and the nuclear fraction was removed by centrifugation (750×g, 10 minutes), and the supernatant from this spin was then subjected to filtration through a low-protein binding 0.22 μm syringe filter to ensure removal of gonococci. Alternatively, gonococci were removed by immunoprecipitation (as described by Wen et al., 2000) using the monoclonal antibody, 2C3, which recognizes the H.8 outer membrane protein of the pathogenic Neisseria. Sucrose was added to the resulting gonococcus-depleted supernatant (S1) to a final concentration of 300 mM. Ultracentrifugation (150,000×g, 90 minutes) was then performed to produce the plasma membrane-(pellet) and cytosol (supernatant 2, S2)-enriched fractions. The membrane-enriched fraction was resuspended in PLD assay buffer (50 mM Tris, 5 mM CaCl2, pH 8.0). S2 was concentrated by filtration through Centricon YM-30 centrifugal filter units (Millipore) after which cytosolic constituents were recovered in PLD assay buffer. Where indicated, prior to infection studies primary pex and pen cell monolayers were treated with 300 nM wortmannin (Sigma) (2 hours, 37° C.) or 1 μM cytochalasin D (Sigma) (30 minutes, 37° C.) to inhibit macropinocytosis of gonococci. Wortmannin and cytochalasin D were maintained in cervical cell cultures during the course of infection.
as §2, with “Determination of” for “4. Determination of”, “Assessment of gonococcal PLD activity” for “Assessment of PLD activity”
Fractionation of Primary Cervical Cells. Uninfected (control) and infected cervical cell monolayers were lysed in buffer A (50 mM tris, pH 7.5; 10 mM NaCl, 1 mM KCl; 2 mM MgCl2, 1 mM PMSF) by scraping cervical cells from tissue culture dishes placed on ice. The cell lysate was sonicated (two bursts of 20 seconds each). […] Sucrose was added to the resulting gonococcus-depleted supernatant (S1) to a final concentration of 300 mM. Ultracentrifugation (150,000×g, 90 minutes) was then performed to produce the plasma membrane-(pellet) and cytosol (supernatant 2, S2)-enriched fractions. The membrane-enriched fraction was resuspended in PLD assay buffer (50 mM Tris, 5 mM CaCl2, pH 8.0). […]

primary cervical cells = assay: Association and invasion assays, primary cervical cells (cell type not specified); assay type: cell-based, human; conditions: negative controls: 200 nM 4-α phorbol, 3 mM hydrogen peroxide
Procedure: The anti-PLD antibody was screened for specificity to PLD using assays well-known to the art.
as §1

[2] = tested on: primary human ectocervical cells; assay: rI-domain inhibition of adherence and invasion of primary ectocervical cells by N. gonorrhoeae 1291; assay type: cell-based
Procedure: Studies were performed evaluating the ability of the rI-domain to inhibit adherence and invasion of primary human ectocervical cells by Neisseria gonorrhoeae. The cervical cells were infected with 107 N. gonorrhoeae strain 1291. Recombinant I-domain is a potent inhibitor of ectocervical cell association by Neisseria gonorrhoeae. As little as 1 ng of rI-domain gives over 90% inhibition of invasion. With decreasing amounts of rI-domain the inhibition decreases in a dose dependent fashion.

[3] = PtC 10.0 µg/ml, wild-type gonococci

phosphatidylcholine [PtC]
Inhibition (%) (Ectocervical Cells; [3]): 98.7786 (0.08) %
Invasion (%) (Ectocervical Cells; [3]): 0.0331 (0.01) %
Inhibition (%) (Ectocervical Cells; PtC 0.01 g/ml): 68.8105 (2.15) %
Invasion (%) (Ectocervical Cells; PtC 0.01 g/ml): 0.8379 (0.03) %
Inhibition (%) (Ectocervical Cells; PtC 0.1 g/ml): 87.3571 (0.28) %
Invasion (%) (Ectocervical Cells; PtC 0.1 g/ml): 0.3418 (0.01) %
Inhibition (%) (Ectocervical Cells; PtC 1.0 g/ml): 92.4681 (0.38) %
Invasion (%) (Ectocervical Cells; PtC 1.0 g/ml): 0.2038 (0.01) %

O=C(N[C@H](CO)[C@H](O)c1ccc([N+](=O)[O-])cc1)C(Cl)Cl [Chloramphenicol, chloramphenicol]
effect on bacterial entry / gonococcal invasion [1]: did not inhibit gonococcal invasion

C=C1[C@@H](C)[C@H]2[C@H](Cc3ccccc3)NC(=O)[C@]23[C@H](OC(C)=O)/C=C/[C@@](C)(O)C(=O)[C@@H](C)C/C=C/[C@H]3[C@@H]1O [Cytochalasin D, cytochalasin D]
effect on bacterial entry / gonococcal invasion [1]: prohibited bacterial entry
PLD Activity in Ectocervical Cell Fractions [Mean (variance)] (PLD; Cytosolic fraction, 1291ΔPLD infected w/ inhibitor (300 nM wortmannin or 1 μM cytochalasin D)): 0.330 (0.07) Fluorescence Units
PLD Activity in Ectocervical Cell Fractions [Mean (variance)] (PLD; Cytosolic fraction, Uninfected w/ inhibitor (300 nM wortmannin or 1 μM cytochalasin D)): 0.395 (0.03) Fluorescence Units
PLD Activity in Ectocervical Cell Fractions [Mean (variance)] (PLD; Cytosolic fraction, WT 1291 infected w/ inhibitor (300 nM wortmannin or 1 μM cytochalasin D)): 0.462 ((0.03) Fluorescence Units
PLD Activity in Ectocervical Cell Fractions [Mean (variance)] (PLD; Membrane fraction, 1291ΔPLD infected w/ inhibitor (300 nM wortmannin or 1 μM cytochalasin D)): 0.393 (0.01) Fluorescence Units
PLD Activity in Ectocervical Cell Fractions [Mean (variance)] (PLD; Membrane fraction, Uninfected w/ inhibitor (300 nM wortmannin or 1 μM cytochalasin D)): 0.389 (0.01) Fluorescence Units
PLD Activity in Ectocervical Cell Fractions [Mean (variance)] (PLD; Membrane fraction, WT 1291 infected w/ inhibitor (300 nM wortmannin or 1 μM cytochalasin D)): 0.436 (0.03) Fluorescence Units

COC(=O)Nc1nc2ccc(C(=O)c3cccs3)cc2[nH]1 [Nocodazole, nocodazole]
decrease in gonococcal invasion ([1]; pretreatment of primary cervical cell monolayers): ~67%

O=C(O)CN(CCOCCOCCN(CC(=O)O)CC(=O)O)CC(=O)O [EGTA, ethylene glycol bis-(2-aminoethyl ether)-N,N, N′, N′ tetraacetic acid]
effect on bacterial entry / gonococcal invasion [1]: prohibited bacterial entry

CC1=C[C@H]2[C@@]3(O)[C@H](C)[C@@H](O)[C@]4(O)[C@H]([C@@H]3C=C(CO)C[C@@]2(O)C1=O)C4(C)C [4-α-phorbol]
effect on gonococcal association, invasion or CR3 cell surface recruitment (primary cervical cells): had no affect

C[C@@H]1C[C@@H]([C@H](O)CC2CC(=O)NC(=O)C2)C(=O)[C@@H](C)C1 [Cycloheximide, cycloheximide]
effect on bacterial entry / gonococcal invasion [1]: did not inhibit gonococcal invasion

B1: rI domain: recombinant murine I-domain of CR3 alpha-subunit, 23 kilodalton peptide with Myc and His domains (SEQ ID NO: 11) (protein, listed as Mus musculus)
chain: FPQQESDIVFLIDGSGSINNIDFQKMKEFVSTVMEQFKKSKTLFSLMQYSDEFRIHFTFNDFKRNPSPRSHVSPIKQLNGRTKTASGIRKVVRELFHKTNGARENAAKILVVITDGEKFGDPLDYKDVIPEADRAGVIRYVIGVGNAFNKPQSRRELDTIASKPAGEHVFQVDNFEALNTIQNQLQEKIFAIPAAASFL
modifications: Myc and His tags
% inhibition of invasion of primary exocervical cells ([2]; rI domain 1 pg/ml): 17.4%
% inhibition of invasion of primary exocervical cells ([2]; rI domain 10 pg/ml): 56.3%
% inhibition of invasion of primary exocervical cells ([2]; rI domain 100 pg/ml): 77.5%
% inhibition of invasion of primary exocervical cells ([2]; rI domain 1 ng/ml): 92.1%
% inhibition of invasion of primary exocervical cells ([2]; rI domain 1 ng/ml, listed as rI-domain): over 90%
% inhibition of invasion of primary exocervical cells ([2]; rI domain 10 ng/ml): 94.6%
% inhibition of invasion of primary exocervical cells ([2]; rI domain 100 ng/ml): 96.8%
% inhibition of invasion of primary exocervical cells ([2]; rI domain 1 μg/ml, N. gonorrhoeae 1291): 98.56%
